According to patent publication US20050176775A1, “Substituted pyridinones” (priority 2003, published 2005):

Row | melting point | Structure (SMILES)
1 | 133.2 to 133.5 °C | O=c1c(Br)c(OCc2ccccc2C(F)(F)F)ccn1Cc1ccccc1 [Example 47, 1-benzyl-3-bromo-4-{[2-(trifluoromethyl)benzyl]oxy}pyridin-2(1H)-one]
2 | 109 to 110 °C | CC(C)NCc1cccc(Cn2ccc(OCc3ccc(F)cc3F)c(Br)c2=O)c1 [Example 75, 3-bromo-4-(2,4-difluorobenzyloxy)-1-[3-(isopropylaminomethyl)benzyl]-1H-pyridin-2-one]
3 | 210.2 to 212.2 °C | NC(=NO)c1ccc(Cn2ccc(OCc3ccccc3)c(Br)c2=O)cc1 [Example 24, 4-{[4-(benzyloxy)-3-bromo-2-oxopyridin-1(2H)-yl]methyl}-N′-hydroxybenzenecarboximidamide]
4 | 155 to 157 °C | CS(=O)(=O)c1cccc(Cn2ccc(OCc3ccc(F)cc3F)c(Cl)c2=O)c1 [Example 81, 3-chloro-4-(2,4-difluorobenzyloxy)-1-[(3-methanesulfonyl)benzyl]-1H-pyridin-2-one]
5 | 150.4 to 151.2 °C | Cc1ccc(Cn2ccc(OCc3ccccc3)c(Br)c2=O)cc1 [Example 2, 4-(benzyloxy)-3-bromo-1-(4-methylbenzyl)pyridin-2(1H)-one]
6 | 198 to 201 °C | NC(=O)c1cccc(Cn2ccc(OCc3ccc(F)cc3F)c(Br)c2=O)c1 [Example 102, 3-[3-bromo-4-(2,4-difluorobenzyloxy)-2-oxo-2H-pyridin-1-ylmethyl]benzamide]
7 | 103 to 107 °C | CN(C)Cc1cccc(Cn2ccc(OCc3ccc(F)cc3F)c(Br)c2=O)c1 [Example 76, 3-bromo-4-(2,4-difluorobenzyloxy)-1-[(3-dimethylaminomethyl)benzyl]-1H-pyridin-2-one]
8 | 95.5 to 95.7 °C | O=c1cc(OCc2cccc(Cl)c2)ccn1Cc1ccccc1 [Example 45, 1-benzyl-4-[(3-chlorobenzyl)oxy]pyridin-2(1H)-one]
9 | 164 to 167 °C | O=c1c(I)c(OCc2ccc(F)cc2F)ccn1Cc1cccc(F)c1 [Example 130, 4-(2,4-Difluorobenzyloxy)-1-(3-fluorobenzyl)-3-iodo-1H-pyridin-2-one]
10 | 164 to 167 °C | NC(=O)Cc1cccc(Cn2ccc(OCc3ccc(F)cc3F)c(Br)c2=O)c1 [Example 128, 2-{3-[3-Bromo-4-(2,4-difluorobenzyloxy)-2-oxo-2H-pyridin-1-ylmethyl]phenyl}acetamide]
11 | 151.6 to 152 °C | O=c1cc(OCc2c(Cl)cccc2Cl)ccn1Cc1ccccc1 [Example 40, 1-benzyl-4-[2,6-(dichlorobenzyl)oxy]pyridin-2(1H)-one]
12 | 107 to 111 °C | CNCc1cccc(Cn2ccc(OCc3ccc(F)cc3F)c(Br)c2=O)c1 [Example 77, 3-Bromo-4-(2,4-difluorobenzyloxy)-1-[(3-methylaminomethyl)benzyl]-1H-pyridin-2-one]
13 | 128 to 129.5 °C | O=c1c(Br)c(OCc2ccccc2)ccn1CCc1cccs1 [Example 30, 4-(benzyloxy)-3-bromo-1-(2-thien-2-ylethyl)pyridin-2(1H)-one]
14 | 134 to 134.3 °C | O=c1c(Br)c(OCc2ccccc2)ccn1CCc1ccsc1 [Example 29, 4-(benzyloxy)-3-bromo-1-(2-thien-3-ylethyl)pyridin-2(1H)-one]
15 | 124.6 to 125 °C | O=c1cc(OCc2ccccc2Cl)ccn1Cc1ccccc1 [Example 42, 1-benzyl-4-[(2-chlorobenzyl)oxy]pyridin-2(1H)-one]

More lines, now with the values behind:

Row | Structure (SMILES) | melting point
16 | NC(=O)c1ccc(Cn2ccc(OCc3ccc(F)cc3F)c(Cl)c2=O)cc1 [Example 83, 4-[3-chloro-4-(2,4-difluorobenzyloxy)-2-oxo-2H-pyridin-1-ylmethyl]benzamide] | 235 to 238 °C
17 | NC(=O)c1ccc(Cn2ccc(OCc3ccc(F)cc3F)c(Br)c2=O)cc1 [Example 103, 4-[3-bromo-4-(2,4-difluorobenzyloxy)-2-oxo-2H-pyridin-1-ylmethyl]benzamide] | 235 to 238 °C
18 | O=C(O)C(F)(F)F.O=c1c(Cl)c(OCc2ccc(F)cc2F)ccn1Cc1cccc2cnccc12 | 235 to 238 °C
19 | O=c1c(Cl)c(OCc2ccc(F)cc2F)ccn1Cc1ccc2c(c1)CCN2 [Example 88, 3-chloro-4-(2,4-difluorobenzyloxy)-1-(2,3-dihydro-1H-indol-5-ylmethyl)-1H-pyridin-2-one] | 137 to 139 °C
20 | N#Cc1ccccc1Cn1ccc(OCc2ccc(F)cc2F)c(Br)c1=O [Example 98, 2-[3-bromo-4-(2,4-difluorobenzyloxy)-2-oxo-2H-pyridin-1-ylmethyl]benzonitrile] | 194 to 197 °C
21 | CC(C)(C)OC(=O)NCc1cccc(Cn2ccc(OCc3ccc(F)cc3F)c(Br)c2=O)c1 [Example 78, {3-[3-bromo-4-(2,4-difluorobenzyloxy)-2-oxo-2H-pyridin-1-ylmethyl]benzyl}carbamic Acid Tert-Butyl Ester] | 80 to 84 °C
22 | O=c1c(Cl)c(OCc2ccc(F)cc2F)ccn1Cc1cccc2c1CCNC2 [Example 85, 3-chloro-4-(2,4-difluorobenzyloxy)-1-(1,2,3,4-tetrahydroisoquinolin-5-ylmethyl)-1H-pyridin-2-one] | 180 to 184 °C
23 | NCc1cccc(Cn2ccc(OCc3ccc(F)cc3F)c(Br)c2=O)c1F [Example 104, 1-(3-aminomethyl-2-fluorobenzyl)-3-bromo-4-(2,4-difluorobenzyloxy)-1H-pyridin-2-one] | 160 to 163 °C
24 | Cl.O=c1c(Br)c(OCc2ccccc2)ccn1CC1CCNCC1 [Example 25, 4-(benzyloxy)-3-bromo-1-(piperidin-4-ylmethyl)pyridin-2(1H)-one Hydrochloride] | 207.9 °C
25 | NCCc1cccc(Cn2ccc(OCc3ccc(F)cc3F)c(Br)c2=O)c1.O=C(O)C(F)(F)F | 70 to 74 °C
26 | CC(C)NCc1ccc(Cn2ccc(OCc3ccc(F)cc3F)c(Cl)c2=O)cc1 [Example 80, 3-chloro-4-(2,4-difluorobenzyloxy)-1-[4-(isopropylaminomethyl)benzyl]-1H-pyridin-2-one] | 146 to 151 °C
27 | NCc1cccc(Cn2ccc(OCc3ccc(F)cc3F)c(Br)c2=O)c1.O=C(O)C(F)(F)F | 80 to 84 °C
28 | O=c1c(Cl)c(OCc2ccc(F)cc2F)ccn1Cc1ccc2[nH]ccc2c1 [Example 86, 3-chloro-4-(2,4-difluorobenzyloxy)-1-(1H-indol-5-ylmethyl)-1H-pyridin-2-one] | 152 to 153 °C
29 | NC(=O)c1cccc(Cn2ccc(OCc3ccc(F)cc3F)c(Cl)c2=O)c1F [Example 106, 3-[3-chloro-4-(2,4-difluorobenzyloxy)-2-oxo-2H-pyridin-1-ylmethyl]-2-fluoro-benzamide] | 252 to 254 °C
30 | NC(=O)Cc1ccccc1Cn1ccc(OCc2ccc(F)cc2F)c(Br)c1=O [Example 126, 2-{2-[3-Bromo-4-(2,4-difluorobenzyloxy)-2-oxo-2H-pyridin-1-ylmethyl]-phenyl}acetamide] | 178 to 183 °C
31 | CN(C)Cc1ccc(Cn2ccc(OCc3ccc(F)cc3F)c(Br)c2=O)cc1 [Example 74, 3-bromo-4-(2,4-difluorobenzyloxy)-1-[(4-dimethylaminomethyl)benzyl]-1H-pyridin-2-one] | 111 to 113 °C
32 | O=c1c(Br)c(OCc2ccc(F)c(F)c2F)ccn1Cc1cccc(F)c1 [Example 108, 3-bromo-1-(3-fluorobenzyl)-4-(2,3,4-trifluorobenzyloxy)-1H-pyridin-2-one] | 176 to 178 °C
